According to patent publication US20240150375A1, “MACROCYCLIC COMPOUNDS AND USES THEREOF” (Theseus Pharmaceuticals, Inc., priority 2021, published 2024):

Assays:
[1] = target: Ba/F3 EGFR-Del19/T790M/C797S (Homo sapiens, UniProt P00533, T790M/C797S, cells depend on it, form not given); assay: Ba/F3 viability assay (CellTiter-Glo), EGFR-Del19/T790M/C797S (DTC); format: cell-based; conditions: Ba/F3 EGFR-Del19/T790M/C797S anti-proliferation; read-out: BAF3 DTC IC50
Source text: (§1) Inhibition of cell proliferation can be studied using Ba/F3 viability assays, including the Promega CellTiter-Glo cell viability assay. This assay can be used to study the effect of compounds described herein in the following assays: (1) Ba/F3 Parental; (2) Ba/F3 EGFR-Del19/T790M; (3); Ba/F3 EGFR-Del19/C797S; and (4) Ba/F3 EGFR-Del119/T790M/C797S.
(§2) One hundred thirty six compounds were studied using the kinase (EGFR) and BA/F3 assays described herein, with more than 60% of the tested compounds providing IC50<50 nM values in all six assays. Accordingly, compounds of the invention are a new general class of kinase inhibitors, including potent inhibitors of EGFR mutants.
(§3) Exemplary kinase inhibition (Kinase) and anti-proliferation activity (Ba/F3) data are shown in Table 1 for certain compounds of the invention and are categorized according to the below legend.

EGFR^L858R/T790M = EGFR^L858R/T790M (Homo sapiens, UniProt P00533, L858R/T790M); assay: HTRF KinEASE-TK in vitro kinase assay, EGFR L858R/T790M (LT); format: biochemical; conditions: EGFR L858R/T790M kinase inhibition
Source text: (§4) The biological activity of compounds described herein can be studied according to standard methods known in the art. Methods can be used to study inhibition of EGFR, including mutant forms of EGFR comprising L858R, T790M, C797S, and/or Del19 mutations, or any combination thereof (e.g., L858R single, double, or triple mutants). Exemplary, non-limiting methods are described herein.
(§5) Assays using an in vitro kinase assay kit (HTRF KinEASE-TK kit) can be used to study the inhibitory activity of compounds described herein with respect to EGFR mutants such as ECFR^L858R, EGFR^L858R/T790M, and EGFR^L858R/T790M/C797S.
as §2, §3

Ba/F3 EGFR-Del19/C797S = Ba/F3 EGFR-Del19/C797S (Homo sapiens, UniProt P00533, C797S, cells depend on it, form not given); assay: Ba/F3 viability assay (CellTiter-Glo), EGFR-Del19/C797S (DC); format: cell-based; conditions: Ba/F3 EGFR-Del19/C797S anti-proliferation; read-out: BAF3 DC IC50
Sequence of Ba/F3 EGFR-Del19/C797S (P00533 with tags, fused parts or gaps DEL746-750/C797S, form open): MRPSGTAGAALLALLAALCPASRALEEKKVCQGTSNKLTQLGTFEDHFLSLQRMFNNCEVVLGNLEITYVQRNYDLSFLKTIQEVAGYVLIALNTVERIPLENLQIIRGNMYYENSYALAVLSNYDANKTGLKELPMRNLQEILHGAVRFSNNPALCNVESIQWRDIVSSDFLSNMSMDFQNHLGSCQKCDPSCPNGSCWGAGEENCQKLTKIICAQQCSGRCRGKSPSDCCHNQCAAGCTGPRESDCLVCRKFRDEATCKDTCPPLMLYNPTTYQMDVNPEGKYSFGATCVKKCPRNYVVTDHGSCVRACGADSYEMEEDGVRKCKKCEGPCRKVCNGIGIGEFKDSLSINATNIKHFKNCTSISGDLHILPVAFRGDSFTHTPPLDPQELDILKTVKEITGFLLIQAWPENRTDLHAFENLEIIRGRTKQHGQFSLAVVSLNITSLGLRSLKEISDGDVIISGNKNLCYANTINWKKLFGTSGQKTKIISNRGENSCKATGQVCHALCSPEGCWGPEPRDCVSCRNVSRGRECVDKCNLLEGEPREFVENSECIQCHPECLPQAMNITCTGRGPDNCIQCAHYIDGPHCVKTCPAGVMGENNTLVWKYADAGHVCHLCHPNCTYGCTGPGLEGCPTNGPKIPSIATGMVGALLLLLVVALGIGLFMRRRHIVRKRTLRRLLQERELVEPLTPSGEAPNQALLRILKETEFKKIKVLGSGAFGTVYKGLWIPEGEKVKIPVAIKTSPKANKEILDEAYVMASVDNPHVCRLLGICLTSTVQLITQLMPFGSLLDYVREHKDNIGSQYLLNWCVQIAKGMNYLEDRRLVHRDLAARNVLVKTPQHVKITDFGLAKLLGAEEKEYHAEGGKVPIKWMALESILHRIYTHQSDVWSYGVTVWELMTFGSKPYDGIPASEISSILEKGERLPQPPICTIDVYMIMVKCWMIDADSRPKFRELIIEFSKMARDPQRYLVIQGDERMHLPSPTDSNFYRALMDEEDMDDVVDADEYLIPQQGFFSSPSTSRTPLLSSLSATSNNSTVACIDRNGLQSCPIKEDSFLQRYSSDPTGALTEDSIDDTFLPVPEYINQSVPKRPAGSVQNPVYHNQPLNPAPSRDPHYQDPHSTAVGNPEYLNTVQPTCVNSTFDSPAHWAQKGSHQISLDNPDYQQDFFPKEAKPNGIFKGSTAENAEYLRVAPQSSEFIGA
Source text: as §1, §2, §3

Ba/F3 EGFR-Del19/T790M = Ba/F3 EGFR-Del19/T790M (Homo sapiens, UniProt P00533, T790M, cells depend on it, form not given); assay: Ba/F3 viability assay (CellTiter-Glo), EGFR-Del19/T790M (DT); format: cell-based; conditions: Ba/F3 EGFR-Del19/T790M anti-proliferation; read-out: BAF3 DT IC50
Sequence of Ba/F3 EGFR-Del19/T790M (P00533 with tags, fused parts or gaps DEL746-750/T790M, form open): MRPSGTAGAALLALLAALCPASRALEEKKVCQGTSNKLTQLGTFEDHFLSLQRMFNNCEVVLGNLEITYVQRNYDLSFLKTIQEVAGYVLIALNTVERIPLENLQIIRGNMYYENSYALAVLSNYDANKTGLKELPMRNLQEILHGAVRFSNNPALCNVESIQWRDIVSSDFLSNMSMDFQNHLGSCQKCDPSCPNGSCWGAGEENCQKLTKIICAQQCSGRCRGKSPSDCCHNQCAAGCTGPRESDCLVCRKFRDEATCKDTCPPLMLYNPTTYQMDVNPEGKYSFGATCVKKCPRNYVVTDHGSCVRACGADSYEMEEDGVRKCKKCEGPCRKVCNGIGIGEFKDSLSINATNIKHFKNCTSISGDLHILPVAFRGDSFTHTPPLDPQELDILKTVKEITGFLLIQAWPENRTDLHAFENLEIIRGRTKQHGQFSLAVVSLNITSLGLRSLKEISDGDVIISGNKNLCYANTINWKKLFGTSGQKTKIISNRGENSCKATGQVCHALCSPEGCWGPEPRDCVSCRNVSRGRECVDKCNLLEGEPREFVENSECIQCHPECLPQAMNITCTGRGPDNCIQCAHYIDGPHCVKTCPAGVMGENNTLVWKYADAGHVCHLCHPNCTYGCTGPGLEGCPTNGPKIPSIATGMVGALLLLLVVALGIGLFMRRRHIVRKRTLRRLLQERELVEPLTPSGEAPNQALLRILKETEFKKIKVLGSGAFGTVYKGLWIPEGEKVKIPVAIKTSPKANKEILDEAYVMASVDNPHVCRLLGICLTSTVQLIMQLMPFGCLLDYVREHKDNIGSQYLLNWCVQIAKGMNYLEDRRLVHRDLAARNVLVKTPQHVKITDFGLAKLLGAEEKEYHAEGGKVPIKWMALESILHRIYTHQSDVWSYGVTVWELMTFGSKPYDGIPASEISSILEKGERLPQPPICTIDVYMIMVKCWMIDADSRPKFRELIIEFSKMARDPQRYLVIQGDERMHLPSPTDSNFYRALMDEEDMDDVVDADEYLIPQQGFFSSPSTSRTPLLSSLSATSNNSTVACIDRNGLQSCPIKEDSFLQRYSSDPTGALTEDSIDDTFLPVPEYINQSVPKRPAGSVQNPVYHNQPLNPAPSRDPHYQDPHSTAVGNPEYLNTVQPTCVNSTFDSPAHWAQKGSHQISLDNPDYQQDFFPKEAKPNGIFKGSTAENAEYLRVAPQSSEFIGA
Source text: as §1, §2, §3

EGFR^L858R = EGFR^L858R (Homo sapiens, UniProt P00533, L858R); assay: HTRF KinEASE-TK in vitro kinase assay, EGFR L858R (L); format: biochemical; conditions: EGFR L858R kinase inhibition
Sequence of EGFR^L858R (P00533 25-1210 L858R): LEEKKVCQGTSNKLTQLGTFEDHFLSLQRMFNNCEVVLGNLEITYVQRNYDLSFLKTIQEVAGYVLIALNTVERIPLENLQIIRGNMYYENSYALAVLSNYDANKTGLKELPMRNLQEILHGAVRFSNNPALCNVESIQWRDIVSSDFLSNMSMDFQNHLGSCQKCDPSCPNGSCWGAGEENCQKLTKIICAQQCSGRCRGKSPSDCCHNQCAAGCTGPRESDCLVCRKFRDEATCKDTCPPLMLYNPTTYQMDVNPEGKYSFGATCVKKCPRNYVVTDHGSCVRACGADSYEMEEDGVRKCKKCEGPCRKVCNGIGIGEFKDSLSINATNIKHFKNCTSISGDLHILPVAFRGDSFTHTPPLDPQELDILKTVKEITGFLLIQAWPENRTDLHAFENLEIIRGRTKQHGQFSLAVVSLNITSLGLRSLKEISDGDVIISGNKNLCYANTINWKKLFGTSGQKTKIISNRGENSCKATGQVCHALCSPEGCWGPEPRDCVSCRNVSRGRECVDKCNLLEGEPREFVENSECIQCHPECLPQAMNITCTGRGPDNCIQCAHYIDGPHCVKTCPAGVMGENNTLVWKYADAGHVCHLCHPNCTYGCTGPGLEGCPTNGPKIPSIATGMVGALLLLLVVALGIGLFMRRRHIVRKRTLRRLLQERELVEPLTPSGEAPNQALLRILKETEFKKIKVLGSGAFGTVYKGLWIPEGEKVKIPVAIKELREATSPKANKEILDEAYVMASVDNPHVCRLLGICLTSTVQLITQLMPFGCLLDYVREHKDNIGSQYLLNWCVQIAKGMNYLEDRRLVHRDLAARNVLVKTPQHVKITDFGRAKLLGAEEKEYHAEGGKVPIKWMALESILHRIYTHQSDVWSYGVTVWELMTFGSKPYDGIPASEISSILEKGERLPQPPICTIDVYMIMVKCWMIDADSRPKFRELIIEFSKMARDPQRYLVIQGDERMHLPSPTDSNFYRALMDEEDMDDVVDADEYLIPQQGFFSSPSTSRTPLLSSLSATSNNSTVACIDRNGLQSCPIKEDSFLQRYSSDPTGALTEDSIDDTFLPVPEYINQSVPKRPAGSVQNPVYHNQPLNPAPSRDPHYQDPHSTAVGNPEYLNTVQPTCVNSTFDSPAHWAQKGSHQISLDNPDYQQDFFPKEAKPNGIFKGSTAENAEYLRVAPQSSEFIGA
Source text: as §4, §5, §2, §3

EGFR^L858R/T790M/C797S = EGFR^L858R/T790M/C797S (Homo sapiens, UniProt P00533, C797S/L858R/T790M); assay: HTRF KinEASE-TK in vitro kinase assay, EGFR L858R/T790M/C797S (LTC); format: biochemical; conditions: EGFR L858R/T790M/C797S kinase inhibition
Source text: as §4, §5, §2, §3

Sequence of Ba/F3 EGFR-Del19/T790M/C797S (P00533 with tags, fused parts or gaps DEL746-750/T790M/C797S, form open): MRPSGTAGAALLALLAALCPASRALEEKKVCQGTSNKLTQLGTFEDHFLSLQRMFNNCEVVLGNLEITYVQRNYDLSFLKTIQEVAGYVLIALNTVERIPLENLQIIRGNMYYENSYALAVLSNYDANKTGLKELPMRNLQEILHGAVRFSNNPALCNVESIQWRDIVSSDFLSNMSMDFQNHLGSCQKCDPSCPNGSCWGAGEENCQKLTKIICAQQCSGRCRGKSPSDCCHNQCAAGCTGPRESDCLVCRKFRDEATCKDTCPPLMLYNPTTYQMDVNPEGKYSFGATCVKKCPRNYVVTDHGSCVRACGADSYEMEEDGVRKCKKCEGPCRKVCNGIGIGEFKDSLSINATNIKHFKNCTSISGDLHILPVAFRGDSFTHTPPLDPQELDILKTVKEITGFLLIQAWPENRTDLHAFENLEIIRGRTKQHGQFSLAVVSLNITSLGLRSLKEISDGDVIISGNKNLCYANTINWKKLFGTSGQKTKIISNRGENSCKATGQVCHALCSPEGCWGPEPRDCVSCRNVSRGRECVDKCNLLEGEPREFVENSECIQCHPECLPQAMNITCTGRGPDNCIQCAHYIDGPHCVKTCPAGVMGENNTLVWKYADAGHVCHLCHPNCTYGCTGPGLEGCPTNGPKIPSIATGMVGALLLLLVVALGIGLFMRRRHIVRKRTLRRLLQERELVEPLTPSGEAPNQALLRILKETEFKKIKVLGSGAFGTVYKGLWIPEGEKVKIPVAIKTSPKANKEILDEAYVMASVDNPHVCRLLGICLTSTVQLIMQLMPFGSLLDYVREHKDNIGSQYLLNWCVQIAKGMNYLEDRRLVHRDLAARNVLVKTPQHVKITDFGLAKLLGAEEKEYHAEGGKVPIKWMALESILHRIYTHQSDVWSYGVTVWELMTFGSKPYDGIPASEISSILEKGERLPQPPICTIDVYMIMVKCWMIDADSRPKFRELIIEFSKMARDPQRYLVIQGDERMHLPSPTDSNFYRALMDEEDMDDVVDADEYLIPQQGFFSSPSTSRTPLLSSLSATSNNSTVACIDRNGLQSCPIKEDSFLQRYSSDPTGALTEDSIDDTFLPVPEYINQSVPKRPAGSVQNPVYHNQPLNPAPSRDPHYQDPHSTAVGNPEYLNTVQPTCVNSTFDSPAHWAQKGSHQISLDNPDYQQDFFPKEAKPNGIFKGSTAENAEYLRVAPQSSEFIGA

Structure (SMILES) | GI50 [1] [nM] | IC50 (EGFR^L858R/T790M) [nM] | GI50 (Ba/F3 EGFR-Del19/C797S) [nM] | GI50 (Ba/F3 EGFR-Del19/T790M) [nM] | IC50 (EGFR^L858R) [nM] | IC50 (EGFR^L858R/T790M/C797S) [nM]
C[C@H]1CCOc2c(cnn2C)-c2nccc(n2)Nc2cc(c(-c3cn(C)cc3OCC(F)(F)F)cn2)O1 [(48), (10S)-5,10-dimethyl-13-[1-methyl-4-(2,2,2-trifluoroethoxy)pyrrol-3-yl]-7,11-dioxa-4,5,15,17,21,22-hexazatetracyclo[16.3.1.1^12,16.0^2,6]tricosa-1(22),2(6),3,12(23),13,15,18,20-octaene] | < 50 | < 50 | < 50 | < 50 | < 50 | < 50
C[C@H]1CCOc2c(cnn2C)-c2nccc(n2)Nc2cc(c(-c3cn(CCN4CCCC4)nc3OCC(F)(F)F)cn2)O1 [(56)] | < 50 | < 50 | < 50 | < 50 | < 50 | < 50
CCOC(=O)CN1CCC(n2cc(-c3cnc4cc3O[C@@H](C)CCOc3c(cnn3C)-c3nccc(n3)N4)c(OCC)n2)CC1 [(62)] | < 50 | < 50 | < 50 | < 50 | < 50 | < 50
C[C@H]1CCOc2c(cnn2C)-c2nccc(n2)Nc2cc(c(Nc3ccn(C)n3)cn2)O1 [(70)] | < 50 | < 50 | < 50 | < 50 | < 50 | < 50
C[C@H]1CCOc2c(cnn2C)-c2nccc(n2)Nc2cc(c(-c3cc4ccccc4n3C)cn2)O1 [(74)] | 100 to 1000 | 100 to 1000 | ≥ 1000 | 100 to 1000 | ≥ 1000 | 100 to 1000
C[C@H]1CCOc2c(cnn2C)-c2nccc(n2)Nc2cc(c(-c3ccc4c(ccn4C)c3)cn2)O1 [(75)] | < 50 | < 50 | 100 to 1000 | 50 to 100 | 50 to 100 | < 50
C[C@H]1CCOc2c(cnn2C)-c2nccc(n2)Nc2cc(c(-c3cnc(N4CCN(C)CC4)n3C)cn2)O1 [(77)] | < 50 | < 50 | 100 to 1000 | 50 to 100 | < 50 | < 50
Cc1c(-c2cnc3cc2O[C@@H](C)CCOc2c(cnn2C)-c2nccc(n2)N3)cnn1C1CCN(CCCF)CC1 [(84)] | < 50 | < 50 | < 50 | < 50 | < 50 | < 50
Cc1nn(C2CCN(CCF)CC2)cc1-c1cnc2cc1O[C@@H](C)CCOc1c(cnn1C)-c1nccc(n1)N2 [(85)] | < 50 | < 50 | < 50 | < 50 | < 50 | < 50
C[C@H]1CCOc2c(cnn2C)-c2nccc(n2)Nc2cc(c(-c3ccnn3CCN3CCOCC3)cn2)O1 [(89)] | ≥ 1000 | < 50 | ≥ 1000 | ≥ 1000 | ≥ 1000 | 100 to 1000
C[C@H]1CCOc2c(cnn2C)-c2nccc(n2)Nc2cc(c(-c3ncc(CN4CCN(C)CC4)s3)cn2)O1 [(92)] | < 50 | < 50 | < 50 | < 50 | < 50 | < 50
C[C@H]1CCOc2c(cnn2C)-c2nccc(n2)Nc2cc(c(-c3ccc(CN4CCN(C)CC4)n3C)cn2)O1 [(103)] | 100 to 1000 | < 50 | 100 to 1000 | 100 to 1000 | 100 to 1000 | < 50
C[C@H]1CCOc2c(cnn2C)-c2nccc(n2)Nc2cc(c(-c3ncc(CN4CCOCC4)s3)cn2)O1 [(115)] | < 50 | < 50 | < 50 | < 50 | < 50 | < 50
C[C@H]1CCOc2c(cnn2C)-c2nccc(n2)Nc2cc(c(-c3cnn(CCCN(C)C)c3)cn2)O1 [(123)] | < 50 | < 50 | < 50 | < 50 | < 50 | < 50
C[C@H]1CCOc2c(cnn2C)-c2nccc(n2)Nc2cc(c(-c3ccc(CN4CCOCC4)cc3)cn2)O1 [(124)] | < 50 | < 50 | < 50 | < 50 | < 50 | < 50
